Some test systems named below: A549; DU-145; EKVX; HCT-116; HCT-15; HOP-92; LOX IMVI; M14; MDA-MB-231; MDA-MB-435; Malme-3M; NCI-H460; NCI-H522; OVCAR-3; RXF 393; SK-MEL-2; SK-MEL-5; SK-OV-3; SNB-19; SR.
Holding throughout (assay): NCI tumour cell line growth inhibition, 48 h

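Test compounds were applied to cells in 96-well plates for 48 hours at 5 doses. GI50: concentration for 50% inhibition of growth.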 Activity calls are given as the source filed them. No stated cut-off is given here; in the data, active = GI50 up to about 1.1 µM and inactive = higher.

On to `COc1cccc(C2c3cc4c(cc3OC(Nc3ccccc3)C2C)OCO4)c1O` (stereo not given), for which the GI50 with A549 was 4.95 µM (inactive); in the test on DU-145, 15.4 µM (inactive); in the test with EKVX it was 11.1 µM (inactive); in the test with HCT-116, 7.6 µM (inactive); in the test on HCT-15 it was 5.62 µM; in the test with HOP-92, 2.48 µM (inactive). The GI50 in the test on LOX IMVI is 5.21 µM (inactive); with M14, 3.84 µM (inactive); in the test with MDA-MB-231 it was 12.7 µM (inactive); with MDA-MB-435, 2.15 µM (inactive); in the test on Malme-3M, 7.24 µM (inactive); in the test on NCI-H460 it was 4.97 µM (inactive). Also, the GI50 in the test on NCI-H522 was 4.4 µM (inactive); with OVCAR-3, 9.18 µM (inactive); with RXF 393 it was 5.05 µM (inactive); with SK-MEL-2 it was 13.9 µM (inactive); in the test with SK-MEL-5, 5.12 µM (inactive); in the test on SK-OV-3, 10.3 µM (inactive). Further, the values for the GI50 with SNB-19 and in the test on SR were 15.2 µM (inactive) and 3.66 µM (inactive), respectively.

Regarding `Cc1nn2c(=O)c([N+](=O)[O-])c(/C=C/c3ccco3)nc2s1`, the GI50 in the test on A549 is 53.5 µM (inactive); in the test with DU-145 it was 40.5 µM (inactive); with EKVX it was 26.4 µM (inactive); with HCT-116 it was 36.3 µM (inactive); in the test on HCT-15, 41.5 µM; in the test with HOP-92, 36.2 µM (inactive). In addition, the GI50 in the test on LOX IMVI was 17.6 µM (inactive); in the test with M14, 64.7 µM (inactive); in the test with MDA-MB-231 it was 63.4 µM (inactive); with MDA-MB-435, 21.1 µM (inactive); with Malme-3M, 68.9 µM (inactive); with NCI-H460, 36.2 µM (inactive). In addition, the GI50 with NCI-H522 was 60.5 µM (inactive); in the test with OVCAR-3, 38.8 µM (inactive); in the test with RXF 393, 28.7 µM (inactive); with SK-MEL-2, 57 µM (inactive); in the test on SK-MEL-5, 25.9 µM (inactive); in the test on SK-OV-3, 43.6 µM (inactive). The GI50 with SNB-19 is 59 µM (inactive); with SR, 28.2 µM (inactive).

For the compound `Cc1ccc(C(=O)Nc2ccc(S(=O)(=O)O)c3cc(S(=O)(=O)O)cc(S(=O)(=O)O)c23)cc1NC(=O)c1cccc(NC(=O)Nc2cccc(C(=O)Nc3cc(C(=O)Nc4ccc(S(=O)(=O)O)c5cc(S(=O)(=O)O)cc(S(=O)(=O)O)c45)ccc3C)c2)c1` [SURAMIN], the GI50 in the test on A549 was 56.4 µM (inactive); in the test with DU-145, > 100 µM (inactive); with EKVX, > 69.5 µM (inactive); with HCT-116, 76 µM (inactive); with HCT-15, 90.8 µM; in the test on HOP-92, 54.5 µM (inactive). Moreover, the GI50 with LOX IMVI is 51.1 µM (inactive); in the test on M14, 74.8 µM (inactive); in the test with MDA-MB-231, > 100 µM (inactive); in the test on MDA-MB-435, > 100 µM (inactive); with Malme-3M, > 83 µM (inactive); in the test on NCI-H460 it was > 80.5 µM (inactive). Also, the GI50 in the test with NCI-H522 is 88.5 µM (inactive); with OVCAR-3 it was > 93.3 µM (inactive); in the test with RXF 393, > 92.7 µM (inactive); in the test with SK-MEL-2, 58.9 µM (inactive); in the test with SK-MEL-5, > 84.7 µM (inactive); with SK-OV-3, > 88.1 µM (inactive). The values for the GI50 in the test with SNB-19 and with SR were > 100 µM (inactive) and 69.3 µM (inactive), respectively.

`CN(C)CCNS(=O)(=O)N(C)C`: the GI50 is > 100 µM (inactive) with A549; > 100 µM (inactive) in the test with DU-145; > 100 µM (inactive) in the test on EKVX; > 100 µM (inactive) in the test with HCT-116; greater than 100 µM with HCT-15; > 100 µM (inactive) in the test with HOP-92. For the same compound, the GI50 in the test on LOX IMVI, in the test on M14, in the test with MDA-MB-231, with MDA-MB-435, with Malme-3M and with NCI-H460 was > 100 µM (inactive) in each case. In addition, the GI50 in the test on NCI-H522, in the test with OVCAR-3, in the test with RXF 393, with SK-MEL-2, in the test on SK-MEL-5 and with SK-OV-3 was > 100 µM (inactive) each time. The GI50 in the test on SNB-19 and in the test on SR was > 100 µM (inactive) in each case.

For `ClCc1nc2cc(Cl)ccc2o1`, the GI50 in the test with A549 is 17 µM (inactive); with DU-145, 6.21 µM (inactive); in the test with EKVX it was 3.75 µM (inactive); in the test on HCT-116, 6.97 µM (inactive); in the test with HCT-15, 3.39 µM; in the test on HOP-92 it was 1.91 µM (inactive). Further, the GI50 with LOX IMVI was 2.44 µM (inactive); in the test on M14 it was 4.31 µM (inactive); in the test on MDA-MB-231, 3.16 µM (inactive); with MDA-MB-435, 2.6 µM (inactive); with Malme-3M, 11.5 µM (inactive); with NCI-H460 it was 12.5 µM (inactive). Also, the GI50 was 1.6 µM (inactive) in the test with NCI-H522; 1.85 µM (inactive) with OVCAR-3; 12.2 µM (inactive) in the test with RXF 393; 5.78 µM (inactive) in the test on SK-MEL-2; 11.9 µM (inactive) in the test on SK-MEL-5; 14.8 µM (inactive) in the test with SK-OV-3. The figures for the GI50 in the test with SNB-19 and in the test with SR were 7.48 µM (inactive) and 1.7 µM (inactive), respectively.

For the compound `COc1ccc(/C=C\c2cc(OC)c(OC)c(OC)c2)cc1OCC(=O)O`, the GI50 was 24.8 µM (inactive) with A549; 6.46 µM (inactive) in the test on DU-145; > 96.8 µM (inactive) in the test on EKVX; 3.46 µM (inactive) in the test with HCT-116; 9.62 µM in the test with HCT-15; 9.89 µM (inactive) in the test on HOP-92. The GI50 in the test on LOX IMVI is 12.2 µM (inactive); in the test with M14, 3.79 µM (inactive); in the test on MDA-MB-231, 18 µM (inactive); in the test on MDA-MB-435 it was 1.72 µM (inactive); with Malme-3M, 4.78 µM (inactive); in the test on NCI-H460, 4.43 µM (inactive). The GI50 is 3.36 µM (inactive) in the test on NCI-H522; 2.69 µM (inactive) in the test on OVCAR-3; 6.15 µM (inactive) in the test on RXF 393; 6.68 µM (inactive) in the test with SK-MEL-2; 4.45 µM (inactive) in the test with SK-MEL-5; 29 µM (inactive) with SK-OV-3. For the same compound, the GI50 was 4.18 µM (inactive) with SNB-19 and 3.89 µM (inactive) in the test on SR.

Turning to `Cc1c(O)c(OC2OC(CO)C(O)C(O)C2O)cc2c1C=C[C@@H]1[C@@]2(C)C(=O)C[C@]2(C)[C@@H]([C@@](C)(O)C(=O)CCC(C)(C)O)[C@H](O)C[C@@]12C` (stereo not given in full), the GI50 with A549 was 26.7 µM (inactive); with DU-145, 23.7 µM (inactive); in the test on EKVX it was 28.6 µM (inactive); in the test with HCT-116 it was 18.9 µM (inactive); in the test on HCT-15 it was 25.9 µM; in the test with HOP-92 it was 18.4 µM (inactive). Moreover, the GI50 with LOX IMVI was 22.6 µM (inactive); in the test with M14, 26.4 µM (inactive); with MDA-MB-231, 21.1 µM (inactive); with MDA-MB-435 it was 27.1 µM (inactive); in the test on Malme-3M, 24 µM (inactive); in the test with NCI-H460 it was 20.2 µM (inactive). The GI50 in the test on NCI-H522 was 24.6 µM (inactive); in the test with OVCAR-3, 22.6 µM (inactive); in the test with RXF 393, 18.6 µM (inactive); in the test with SK-MEL-2, 26.2 µM (inactive); in the test with SK-MEL-5, 23 µM (inactive); with SK-OV-3, 15.7 µM (inactive). Besides, the results for the GI50 with SNB-19 and in the test on SR were 23.2 µM (inactive) and 35.9 µM (inactive), respectively.

Regarding `COC1OC(C(=O)O)C2OC(C)(C)OC12` (stereo not given), the GI50 is > 100 µM (inactive) with A549; > 100 µM (inactive) in the test with DU-145; > 100 µM (inactive) with EKVX; > 100 µM (inactive) with HCT-116; greater than 100 µM in the test with HCT-15; > 100 µM (inactive) in the test on HOP-92. Besides, the GI50 in the test on LOX IMVI, in the test with M14, in the test on MDA-MB-231, in the test on MDA-MB-435, in the test with Malme-3M and in the test with NCI-H460 was > 100 µM (inactive) throughout. The GI50 with NCI-H522, in the test with OVCAR-3, in the test on RXF 393, in the test on SK-MEL-2, in the test with SK-MEL-5 and with SK-OV-3 was > 100 µM (inactive) each time. The GI50 in the test on SNB-19 and in the test with SR was > 100 µM (inactive) throughout.

Consider `O=C(O)CS(=O)(=O)C(c1ccccc1)c1ccccc1`, for which the GI50 is > 100 µM (inactive) with A549; > 100 µM (inactive) in the test on DU-145; > 100 µM (inactive) in the test with EKVX; > 100 µM (inactive) in the test on HCT-116; greater than 100 µM in the test on HCT-15; > 100 µM (inactive) in the test with HOP-92. The GI50 with LOX IMVI, in the test with M14, in the test on MDA-MB-231, with MDA-MB-435, in the test on Malme-3M and in the test on NCI-H460 was > 100 µM (inactive) each time. The GI50 in the test on NCI-H522, with OVCAR-3, in the test on RXF 393, in the test on SK-MEL-2, in the test with SK-MEL-5 and in the test on SK-OV-3 was > 100 µM (inactive) in each case. Also, the GI50 in the test on SNB-19 and in the test on SR was > 100 µM (inactive) throughout.

Turning to `C=CCOC(=O)N1c2ccc(O[Si](C)(C)C(C)(C)C)cc2[C@@]23O[C@@]24[C@@H]1C#C/C=C\C#C[C@]3(O)C(OC)(OC)C[C@@H]4C`, the GI50 in the test on A549 was 20 µM (inactive); with DU-145 it was > 80 µM (inactive); with EKVX it was > 38.5 µM (inactive); in the test on HCT-116, 8.38 µM (inactive); in the test on HCT-15, greater than 100 µM; with HOP-92, 18.2 µM (inactive). The GI50 in the test with LOX IMVI is 16.7 µM (inactive); in the test with M14, > 65 µM (inactive); in the test on MDA-MB-231, > 100 µM (inactive); with MDA-MB-435 it was > 85.1 µM (inactive); with Malme-3M, > 100 µM (inactive); with NCI-H460, 11.5 µM (inactive). Also, the GI50 with NCI-H522 was 44.6 µM (inactive); in the test with OVCAR-3, 5.55 µM (inactive); in the test with RXF 393, 29.5 µM (inactive); with SK-MEL-2, > 100 µM (inactive); in the test with SK-MEL-5, 18.7 µM (inactive); in the test with SK-OV-3, 7.36 µM (inactive). Also, the GI50 in the test on SNB-19 was > 74.6 µM (inactive); with SR, 33.9 µM (inactive).

The values are drawn from ChEMBL document CHEMBL1201862, “PubChem BioAssay data set” (2004).
